Measured values: PubChem BioAssay AID2060882 (Molecular Pharmacology Branch, DTP, NCI, 2025)

System: 898857-211-R-J1-PDC complex spheroids, growth % test/control
Assay: Anticancer human tumor 898857-211-R-J1-PDC patient-derived melanoma cell line growth inhibition [RAS]
Conditions: for IC50: curve of first compound; for viability, T/C: stronger effect = lower value
How it was run: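 Multi-cell-type spheroids: tumor cells plus HUVEC endothelial cells and mesenchymal stem cells. RAS-pathway inhibitors were combined with targeted agents, each dosed in half-log steps down from clinical Cmax, or from 10 microM when Cmax was unknown.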
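Also: spheroids exposed to compound for seven days before readout.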
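For viability, T/C in this document: 100% = DMSO vehicle control wells.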

Structure (SMILES): CCc1c2c(nc3ccc(O)cc13)-c1cc3c(c(=O)n1C2)COC(=O)[C@]3(O)CC + C#Cc1c(F)ccc2cc(O)cc(-c3ncc4c(N5CC6CCC(C5)N6)nc(OCC56CCCN5CC(F)C6)nc4c3F)c12
- IC50 (second compound 0.0316 µM): 4.7 nM
- IC50 (second compound 0.1 µM): 4.58 nM
- IC50 (second compound 0.316 µM): 5.12 nM
- IC50 (second compound 1 µM): 4.9 nM
- IC50 (second compound 3.16 µM): 5.35 nM
- IC50 (second compound 10 µM): 1.04 nM
- viability, T/C (second compound 0.0316 µM, first compound 0.000949 µM): 109%
- viability, T/C (second compound 0.0316 µM, first compound 0.003 µM): 63.3%
- viability, T/C (second compound 0.0316 µM, first compound 0.00949 µM): 30%
- viability, T/C (second compound 0.0316 µM, first compound 0.03 µM): 11.4%
- viability, T/C (second compound 0.0316 µM, first compound 0.0949 µM): 9.62%
- viability, T/C (second compound 0.0316 µM, first compound 0.3 µM): 9.76%
- viability, T/C (second compound 0.1 µM, first compound 0.000949 µM): 94.1%
- viability, T/C (second compound 0.1 µM, first compound 0.003 µM): 61.4%
- viability, T/C (second compound 0.1 µM, first compound 0.00949 µM): 30.9%
- viability, T/C (second compound 0.1 µM, first compound 0.03 µM): 10.3%
- viability, T/C (second compound 0.1 µM, first compound 0.0949 µM): 8.95%
- viability, T/C (second compound 0.1 µM, first compound 0.3 µM): 8.77%
- viability, T/C (second compound 0.316 µM, first compound 0.000949 µM): 93%
- viability, T/C (second compound 0.316 µM, first compound 0.003 µM): 67.7%
- viability, T/C (second compound 0.316 µM, first compound 0.00949 µM): 30.2%
- viability, T/C (second compound 0.316 µM, first compound 0.03 µM): 8.72%
- viability, T/C (second compound 0.316 µM, first compound 0.0949 µM): 7.89%
- viability, T/C (second compound 0.316 µM, first compound 0.3 µM): 9.18%
- viability, T/C (second compound 1 µM, first compound 0.000949 µM): 86.7%
- viability, T/C (second compound 1 µM, first compound 0.003 µM): 62.4%
- viability, T/C (second compound 1 µM, first compound 0.00949 µM): 33.9%
- viability, T/C (second compound 1 µM, first compound 0.03 µM): 11.3%
- viability, T/C (second compound 1 µM, first compound 0.0949 µM): 8.52%
- viability, T/C (second compound 1 µM, first compound 0.3 µM): 8.89%
- viability, T/C (second compound 3.16 µM, first compound 0.000949 µM): 87.2%
- viability, T/C (second compound 3.16 µM, first compound 0.003 µM): 71.3%
- viability, T/C (second compound 3.16 µM, first compound 0.00949 µM): 29%
- viability, T/C (second compound 3.16 µM, first compound 0.03 µM): 10.9%
- viability, T/C (second compound 3.16 µM, first compound 0.0949 µM): 9.14%
- viability, T/C (second compound 3.16 µM, first compound 0.3 µM): 8.78%
- viability, T/C (second compound 10 µM, first compound 0.000949 µM): 51.6%
- viability, T/C (second compound 10 µM, first compound 0.003 µM): 29.9%
- viability, T/C (second compound 10 µM, first compound 0.00949 µM): 15%
- viability, T/C (second compound 10 µM, first compound 0.03 µM): 10.1%
- viability, T/C (second compound 10 µM, first compound 0.0949 µM): 9.3%
- viability, T/C (second compound 10 µM, first compound 0.3 µM): 7.33%

Structure (SMILES): C=CC(=O)Nc1cc(Nc2nccc(-c3cn(C)c4ccccc34)n2)c(OC)cc1N(C)CCN(C)C + C=CC(=O)N1CCN(c2nc(OCC3CCCN3C)nc3c(F)c(-c4nc(N)cc(C)c4C(F)(F)F)c(Cl)cc23)C(C)C1
- IC50 (second compound 0.00316 µM): 940 nM
- IC50 (second compound 0.01 µM): > 1000 nM
- IC50 (second compound 0.0316 µM): > 1000 nM
- IC50 (second compound 0.1 µM): 962 nM
- IC50 (second compound 0.316 µM): > 1000 nM
- IC50 (second compound 1 µM): 870 nM
- viability, T/C (second compound 0.00316 µM, first compound 0.00316 µM): 98.9%
- viability, T/C (second compound 0.00316 µM, first compound 0.01 µM): 98.9%
- viability, T/C (second compound 0.00316 µM, first compound 0.0316 µM): 116%
- viability, T/C (second compound 0.00316 µM, first compound 0.1 µM): 101%
- viability, T/C (second compound 0.00316 µM, first compound 0.316 µM): 92.6%
- viability, T/C (second compound 0.00316 µM, first compound 1 µM): 47.5%
- viability, T/C (second compound 0.01 µM, first compound 0.00316 µM): 102%
- viability, T/C (second compound 0.01 µM, first compound 0.01 µM): 105%
- viability, T/C (second compound 0.01 µM, first compound 0.0316 µM): 93%
- viability, T/C (second compound 0.01 µM, first compound 0.1 µM): 100%
- viability, T/C (second compound 0.01 µM, first compound 0.316 µM): 96.5%
- viability, T/C (second compound 0.01 µM, first compound 1 µM): 54.4%
- viability, T/C (second compound 0.0316 µM, first compound 0.00316 µM): 104%
- viability, T/C (second compound 0.0316 µM, first compound 0.01 µM): 103%
- viability, T/C (second compound 0.0316 µM, first compound 0.0316 µM): 104%
- viability, T/C (second compound 0.0316 µM, first compound 0.1 µM): 107%
- viability, T/C (second compound 0.0316 µM, first compound 0.316 µM): 93.6%
- viability, T/C (second compound 0.0316 µM, first compound 1 µM): 58.4%
- viability, T/C (second compound 0.1 µM, first compound 0.00316 µM): 105%
- viability, T/C (second compound 0.1 µM, first compound 0.01 µM): 105%
- viability, T/C (second compound 0.1 µM, first compound 0.0316 µM): 117%
- viability, T/C (second compound 0.1 µM, first compound 0.1 µM): 106%
- viability, T/C (second compound 0.1 µM, first compound 0.316 µM): 98%
- viability, T/C (second compound 0.1 µM, first compound 1 µM): 48.2%
- viability, T/C (second compound 0.316 µM, first compound 0.00316 µM): 114%
- viability, T/C (second compound 0.316 µM, first compound 0.01 µM): 112%
- viability, T/C (second compound 0.316 µM, first compound 0.0316 µM): 116%
- viability, T/C (second compound 0.316 µM, first compound 0.1 µM): 108%
- viability, T/C (second compound 0.316 µM, first compound 0.316 µM): 93.8%
- viability, T/C (second compound 0.316 µM, first compound 1 µM): 53.7%
- viability, T/C (second compound 1 µM, first compound 0.00316 µM): 118%
- viability, T/C (second compound 1 µM, first compound 0.01 µM): 120%
- viability, T/C (second compound 1 µM, first compound 0.0316 µM): 124%
- viability, T/C (second compound 1 µM, first compound 0.1 µM): 114%
- viability, T/C (second compound 1 µM, first compound 0.316 µM): 97.7%
- viability, T/C (second compound 1 µM, first compound 1 µM): 43.4%
